From patent US6413529B1, “Antimicrobial wipes which provide improved residual benefit versus gram negative bacteria” (The Procter & Gamble Company, priority 1999, dated 2002) come the findings set out here.

This assay concerns Microtox Acute Toxicity Reagent (Vibrio fischerio). As to the kind of experiment: Microtox Response Test (Microtox Response Index of anionic surfactant). Type of assay: cell-based. As to conditions: pure anionic surfactant; EC50 for 50% decrease of bioluminescence, 5 minutes. The source says: The biological activity/mildness of a pure surfactant can measured directly via a Microtox Response Test hereinafter described in the Analytical Methods section and can be reported as a Microtox Response Index. By “pure surfactant” it is meant a chemical composition consisting essentially of a single surfactant entity, wherein the entity has essentially one chain length, head group and salt counter ion. From a standpoint of high biological activity, preferred anionic surfactants of the antimicrobial cleansing compositions of the present invention have a Microtox Response Index of less that about 150, more preferably less than about 100 and most preferably less than about 50. […]
For surfactant compositions which are mixtures of surfactants rather than pure surfactants (this includes “commercial grade” surfactants which typically comprise mixtures of entities with different chain lengths and potentially have higher levels of impurities), the Microtox Response Index for any individual surfactant component is not a reliable measurement of biological activity or mildness. In the case of mixtures, the Microtox Index of each individual component can be determined and the weighted average used as the Index for the mixture if all the individual components of the mixture are known. […]

In the case of `CCCCCCCCCCCCOS(=O)(=O)O.N` [ammonium lauryl sulfate], the “Microtox Index” value is 1.0 ppm.
The same measure for ammonium laureth-3 sulfate: 120 ppm.
